Assay results from publication PMC11224111, “Optimizing the pharmacokinetics of an ^211At-labeled RGD peptide with an albumin-binding moiety via the administration of an albumin-binding inhibitor” (European Journal of Nuclear Medicine and Molecular Imaging, 2024).
Marks after values point to notes of the source that are not given here.

Key:
[1] = Biodistribution of [^211At]1 and [^125I]2 in normal mice with ibuprofen or IPBA as albumin-binding inhibitor; conditions: 4 h after administration
Protocol: To evaluate the effects of albumin-binding inhibitors in normal mice, [^211At]1 (37 kBq) and [^125I]2 (37 kBq) were intravenously coadministered. […] The total blood albumin (1.1 µmol) in normal mice was calculated from the albumin concentration (3.0 g/dL ≈ 455 µM) in blood, which was informed from Japan SLC, Inc., total blood volume (2.5 mL) as 8% of body weight, and the molecular weight of albumin as 66,000 g/mol. […]
Table S1. Biodistribution of radioactivity 4 h after administration of [^211At]1 and [^125I]2 in normal mice.

[2] = Radiation dose estimation (MIRDcalc, adult male) from mouse biodistribution; parameters: species or system human; conditions: for Absorbed dose estimates, Bone marrow / Absorbed dose estimates, Brain / Absorbed dose estimates, Heart / Absorbed dose estimates, Kidney / Absorbed dose estimates, L. intestine / Absorbed dose estimates, Liver / Absorbed dose estimates, Lung / Absorbed dose estimates, Muscle / Absorbed dose estimates, Pancreas / Absorbed dose estimates, S. intestine / Absorbed dose estimates, Spleen / Absorbed dose estimates, Stomach / Absorbed dose estimates, Thyroid / Absorbed dose estimates, Tumor: adult male, MIRDcalc
From the text: For estimation of the radiation dose absorbed, the blood, bone, and muscle mass of mice were assumed to be 8%, 5%, and 48% of body weight, respectively. The stomach was assumed to be distributed only in the wall, the heart, small intestine, and colon equally in the content and wall, and the colon was further assumed to be equally distributed in the left, right, and rectosigmoid. According to the International Commission on Radiological Protection, an equal distribution of radionuclide to trabecular and cortical bones was assumed. The non-decay-corrected activity from each source organ was converted into a percentage of the injected dose. The area under each organ’s activity curve from time 0 to infinity was calculated by extrapolation of biodistribution data. To correct for the different ratios of organ to total body weights in mouse and in human, we used the following organ correction factor (CR):
CR=organmass/totalbodymasshuman/organmass/totalbodymassmouse
Human organ weights and total body weights used data for adult males from previous reports. Tumor volume was converted from mouse-to-human total body weight ratio. According to the values, the radiation doses were calculated for an adult male patient using MIRDcalc v1.21 software (Society of Nuclear Medicine and Molecular Imaging). In the case of without administrating IPBA, calculation was performed using the data of a biodistribution study in our previous study.

[3] = IPBA 10 eq at 1 h postinjection
[4] = ibuprofen 10 eq at 1 h postinjection
[5] = With IPBA, ratio of absorbed dose estimates
[6] = Without IPBA, calculated from data of ref 16
[7] = Without IPBA, ratio of absorbed dose estimates, calculated from data of ref 16

## Ga-DOTA-K([^211At]APBA)-c(RGDfK) [[^211At]1]
[1]; IPBA 2 eq at 1 h postinjection
  Radioactivity, Blood: 8.33 (0.29)^ a, b % injected activity per gram
  Radioactivity, Bone: 1.35 (0.06)^ a % injected activity per gram
  Radioactivity, Brain: 0.24 (0.04)^ a % injected activity per gram
  Radioactivity, Heart: 2.90 (0.09) ^a, b % injected activity per gram
  Radioactivity, Kidney: 3.36 (0.20) % injected activity per gram
  Radioactivity, L. intestine: 1.53 (0.39) % injected activity per gram
  Radioactivity, Liver: 1.68 (0.15)^ a % injected activity per gram
  Radioactivity, Lung: 4.96 (0.40)^ a, b % injected activity per gram
  Radioactivity, Muscle: 1.16 (0.09) % injected activity per gram
  Radioactivity, Neck: 0.23 (0.07)^ a % injected activity
  Radioactivity, Pancreas: 1.55 (0.15)^ a, b % injected activity per gram
  Radioactivity, S. intestine: 1.47 (0.05) % injected activity per gram
  Radioactivity, Spleen: 1.54 (0.18) % injected activity per gram
  Radioactivity, Stomach: 1.84 (0.32) % injected activity
[1]; IPBA 5 eq at 1 h postinjection
  Radioactivity, Blood: 3.46 (0.33)^ a, b, c % injected activity per gram
  Radioactivity, Bone: 0.95 (0.08)^ a, b % injected activity per gram
  Radioactivity, Brain: 0.16 (0.01)^ a % injected activity per gram
  Radioactivity, Heart: 1.38 (0.13)^ a, b, c % injected activity per gram
  Radioactivity, Kidney: 3.67 (0.10) ^b % injected activity per gram
  Radioactivity, L. intestine: 0.84 (0.22) ^b % injected activity per gram
  Radioactivity, Liver: 1.35 (0.16)^ a, b, c % injected activity per gram
  Radioactivity, Lung: 2.84 (0.27)^ a, b, c % injected activity per gram
  Radioactivity, Muscle: 0.62 (0.04)^ a, b, c % injected activity per gram
  Radioactivity, Neck: 0.08 (0.02)^ a, b % injected activity
  Radioactivity, Pancreas: 1.03 (0.15)^ a, b, c % injected activity per gram
  Radioactivity, S. intestine: 1.35 (0.13) % injected activity per gram
  Radioactivity, Spleen: 1.19 (0.73)^ a % injected activity per gram
  Radioactivity, Stomach: 1.45 (0.45)^ a, b % injected activity
[1]; [3]
  Radioactivity, Blood: 1.56 (0.20)^ a, b, c, d % injected activity per gram
  Radioactivity, Bone: 0.98 (0.12)^ a, b, c % injected activity per gram
  Radioactivity, Brain: 0.14 (0.02)^ a % injected activity per gram
  Radioactivity, Heart: 0.78 (0.10)^ a, b, c, d % injected activity per gram
  Radioactivity, Kidney: 3.77 (0.50)^ b % injected activity per gram
  Radioactivity, L. intestine: 0.88 (0.27)^ b % injected activity per gram
  Radioactivity, Liver: 0.80 (0.07)^ a, b, c % injected activity per gram
  Radioactivity, Lung: 1.88 (0.12)^ a, b, c % injected activity per gram
  Radioactivity, Muscle: 0.42 (0.03)^ a, b, c, d % injected activity per gram
  Radioactivity, Neck: 0.03 (0.02)^ b, c, d % injected activity
  Radioactivity, Pancreas: 0.66 (0.17)^ a, b, c, d % injected activity per gram
  Radioactivity, S. intestine: 1.14 (0.08)^ a, b, d % injected activity per gram
  Radioactivity, Spleen: 1.22 (0.17)^ a % injected activity per gram
  Radioactivity, Stomach: 1.30 (0.20)^ d % injected activity
[1]; [4]
  Radioactivity, Blood: 10.82 (0.58) ^a % injected activity per gram
  Radioactivity, Bone: 1.57 (0.18)^ a % injected activity per gram
  Radioactivity, Brain: 0.26 (0.03) % injected activity per gram
  Radioactivity, Heart: 3.49 (0.36) % injected activity per gram
  Radioactivity, Kidney: 3.03 (0.24) % injected activity per gram
  Radioactivity, L. intestine: 2.32 (0.57) % injected activity per gram
  Radioactivity, Liver: 1.87 (0.31)^ a % injected activity per gram
  Radioactivity, Lung: 6.44 (1.14) % injected activity per gram
  Radioactivity, Muscle: 1.28 (0.15) % injected activity per gram
  Radioactivity, Neck: 0.18 (0.03)^ a % injected activity
  Radioactivity, Pancreas: 1.85 (0.12) % injected activity per gram
  Radioactivity, S. intestine: 1.58 (0.15) % injected activity per gram
  Radioactivity, Spleen: 1.47 (0.29)^ a % injected activity per gram
  Radioactivity, Stomach: 1.57 (0.21) % injected activity
[1]; vehicle at 1 h postinjection
  Radioactivity, Blood: 14.03 (0.79) % injected activity per gram
  Radioactivity, Bone: 1.88 (0.10) % injected activity per gram
  Radioactivity, Brain: 0.37 (0.11) % injected activity per gram
  Radioactivity, Heart: 3.83 (0.30) % injected activity per gram
  Radioactivity, Kidney: 3.19 (0.20) % injected activity per gram
  Radioactivity, L. intestine: 1.52 (0.35) % injected activity per gram
  Radioactivity, Liver: 2.51 (0.20) % injected activity per gram
  Radioactivity, Lung: 7.69 (0.63) % injected activity per gram
  Radioactivity, Muscle: 1.26 (0.09) % injected activity per gram
  Radioactivity, Neck: 0.05 (0.01) % injected activity
  Radioactivity, Pancreas: 1.88 (0.10) % injected activity per gram
  Radioactivity, S. intestine: 1.85 (0.16) % injected activity per gram
  Radioactivity, Spleen: 2.02 (0.26) % injected activity per gram
  Radioactivity, Stomach: 0.80 (0.10) % injected activity
[2]; 1.85 MBq with IPBA
  Absorbed dose to tumor tissue: 1.34 mGy
[2]; With IPBA
  Absorbed dose estimates, Bone marrow: 0.042 mGy/MBq
  Absorbed dose estimates, Brain: 0.017 mGy/MBq
  Absorbed dose estimates, Heart: 0.080 mGy/MBq
  Absorbed dose estimates, Kidney: 0.266 mGy/MBq
  Absorbed dose estimates, L. intestine: 0.056 mGy/MBq
  Absorbed dose estimates, Liver: 0.109 mGy/MBq
  Absorbed dose estimates, Lung: 0.203 mGy/MBq
  Absorbed dose estimates, Muscle: 0.300 mGy/MBq
  Absorbed dose estimates, Pancreas: 0.087 mGy/MBq
  Absorbed dose estimates, S. intestine: 0.052 mGy/MBq
  Absorbed dose estimates, Spleen: 0.117 mGy/MBq
  Absorbed dose estimates, Stomach: 0.051 mGy/MBq
  Absorbed dose estimates, Thyroid: 0.032 mGy/MBq
  Absorbed dose estimates, Tumor: 0.727 mGy/MBq
[2]; [5]
  Tumor/normal tissue ratio, Brain: 51.071
  Tumor/normal tissue ratio, Heart: 10.712
  Tumor/normal tissue ratio, Kidney: 3.226
  Tumor/normal tissue ratio, L. intestine: 15.349
  Tumor/normal tissue ratio, Liver: 7.872
  Tumor/normal tissue ratio, Lung: 4.227
  Tumor/normal tissue ratio, Muscle: 2.860
  Tumor/normal tissue ratio, Pancreas: 9.873
  Tumor/normal tissue ratio, S. intestine: 16.437
  Tumor/normal tissue ratio, Spleen: 7.333
  Tumor/normal tissue ratio, Stomach: 16.791
  Tumor/normal tissue ratio, Thyroid: 26.729
[2]; [6]
  Absorbed dose estimates, Bone marrow: 0.132 mGy/MBq
  Absorbed dose estimates, Brain: 0.218 mGy/MBq
  Absorbed dose estimates, Heart: 0.381 mGy/MBq
  Absorbed dose estimates, Kidney: 0.427 mGy/MBq
  Absorbed dose estimates, L. intestine: 0.193 mGy/MBq
  Absorbed dose estimates, Liver: 0.319 mGy/MBq
  Absorbed dose estimates, Lung: 0.976 mGy/MBq
  Absorbed dose estimates, Muscle: 0.557 mGy/MBq
  Absorbed dose estimates, Pancreas: 0.246 mGy/MBq
  Absorbed dose estimates, S. intestine: 0.190 mGy/MBq
  Absorbed dose estimates, Spleen: 0.354 mGy/MBq
  Absorbed dose estimates, Stomach: 0.176 mGy/MBq
  Absorbed dose estimates, Thyroid: 0.111 mGy/MBq
  Absorbed dose estimates, Tumor: 0.858 mGy/MBq
[2]; [7]
  Tumor/normal tissue ratio, Bone marrow: 6.500
  Tumor/normal tissue ratio, Brain: 3.936
  Tumor/normal tissue ratio, Heart: 2.252
  Tumor/normal tissue ratio, Kidney: 2.009
  Tumor/normal tissue ratio, L. intestine: 4.446
  Tumor/normal tissue ratio, Liver: 2.690
  Tumor/normal tissue ratio, Lung: 0.879
  Tumor/normal tissue ratio, Muscle: 1.540
  Tumor/normal tissue ratio, Pancreas: 3.488
  Tumor/normal tissue ratio, S. intestine: 4.516
  Tumor/normal tissue ratio, Spleen: 2.424
  Tumor/normal tissue ratio, Stomach: 4.875
  Tumor/normal tissue ratio, Thyroid: 7.730
